Experimental data from US20220079876A1, “OCULAR IMPLANT CONTAINING A TYROSINE KINASE INHIBITOR” (Ocular Therapeutix, Inc., priority 2020, published 2022).
Converted amounts (≈) assume the structure as drawn.

How the values were obtained:
[1] = tested on: VEGF-induced vascular leakage; assay: VEGF challenge, vascular leakage scored by fluorescein angiography; type: in vivo, Dutch belted rabbits; settings: rabbit; 1.25 mg Avastin intravitreal only (group 3)
[2] = 1.25 mg intravitreal dose (Sinapis et al., 2011); cited from earlier work
[3] = In vitro axitinib release under non-sink simulated physiological conditions; type: physicochemical; settings: pH 7.2, aqueous buffer, thermodynamic from solid; PBS from control implant release after 20 or 30 days at 37° C.
Description: Three exemplarily selected implant formulations were examined (Table 1). Implant variants #1 and 2 were examined using one implant, implant variant #3 using one and two implants (four conditions in total). All conditions were conducted in duplicate.
In vitro released and non-released axitinib was determined for each group without (control) and with daily release media sampling.
For control implant release, samples were placed in tubes. Five mL of PBS (pH 7.2) were added to each tube on day 0 and the tubes were covered with a lid. Samples were then placed in a 37° C. incubator and gently rocked for 20 (1× implant #3) or 30 days (implant #1 and #2, 2× implant #3). At the end of the test period, the PBS was removed (1 mL PBS was saved for testing). One mL of ethanol was added to the residual sample. Both PBS samples and residual samples were tested for axitinib amount released.
For daily implant release, samples were placed in tubes. Five mL of PBS were added to each tube on day 0 and the tubes were covered with a lid. Samples were then placed in a 37° C. incubator and rocked gently. After 24 hours, 4 mL of PBS were removed from each sample from which 1 mL was used for testing and the remaining 3 mL were disposed. Four mL of fresh PBS were added back into each tube. This process was repeated for 20 (1× implant #3) or 30 days (implant #1 and #2, 2× implant #3). […]

[4] = Rugo et al. 2005; cited from earlier work
[5] = in vivo; cited from earlier work

Avastin®: anti-VEGF therapeutic
Duration of effect post injection [1]: ≤ 3 months | Vascular leakage after VEGF challenge, after 3 months [1]: vascular leakage re-occurred | Half-life in rabbits [2]: 158 h

CNC(=O)c1ccccc1Sc1ccc2c(/C=C/c3ccccn3)n[nH]c2c1 [axitinib, N-methyl-2-[3-((E)-2-pyridin-2-yl-vinyl)-1H-indazol-6-ylsulfanyl]-benzamide]
solubility [3]: 0.24 to 0.4 µg/mL (≈ 0.621 to 1.03 µM) | Clearance half-life (t1/2) [4]: a few hours

aflibercept: anti-VEGF agent, aflibercept injection by Regeneron
t1/2 in the human eye [5]: several days

ranibizumab: anti-VEGF agent, ranibizumab injection by Genentech
t1/2 in the human eye [5]: several days
